Reference: patent publication US20240279202A1 (NURIX THERAPEUTICS, INC., priority 2021, published 2024)

Experiments:
[1] = Mouse PK analysis (blood/plasma concentration after oral administration); format: in vivo; conditions: mouse; mice, oral, plasma
Procedure: (§1) Compounds 1, 3, 7, and 42 were formulated and administered at 90 mg/kg to mice by oral gavage (PO). Blood was collected at defined time points (after 1, 2, and 6 hours) after compounds administration to determine PK parameters. Concentration increased through 6 hours. Six hours later mice were sacrificed and splenocytes were isolated and used to prepare protein lysates. Total protein levels were determined in the lysates using the BCA assay according to standard methods. Equal amounts of protein were then analyzed by Western blot to determine the level of ITK expression in each sample. ITK band intensities were measured using Alpha View software and the percent of ITK remaining in each test animal was determined relative to the mean of ITK levels in vehicle control samples.
Compounds 16, 17, and 18 were administered to mice orally. After 6 hours or 24 hours, splenocytes cells were harvested. ITK was evaluated by Western blotting. Plasma concentrations were determined by LC/MS/MS. Plasma samples were protein precipitated by addition of 100 μl of acetonitrile containing 50 ng/ml of internal standard. The resulting mixture was vortexed and centrifuged at 4000 RPM for 5 minutes. An aliquot of the resultant supernatant (75 μl) was added to 75 μl of 0.1% formic acid in water to constitute the final sample for injection. Samples were injected on a Shimadzu Exion LC Binary Gradient AD Pump HLPC system connected to a Sciex QTRAP 6500+mass spectrometer. Five μl of sample was injected onto a Waters Acquity UPLC BEH C18 column 130A (2.1×30 mm, […]) at 40° C. utilizing a flow rate of 700 μl/minute. Mobile Phase A was 0.1% formic acid in water and mobile phase B was 0.1% formic acid in acetonitrile. A linear gradient of 15-95% B over 1.0 minute was used. The mass spectrometer was operated in positive ion electrospray mode with multiple reaction monitoring for maximum sensitivity. Sciex Analyst software (version 1.6.3) was used for LC/MS/MS instrument control and acquisition. Compound concentration was determined against a standard curve of internal standard versus compound peak area ratio. Noncompartmental PK parameters were determined using […] software (version 8.2.0.4383) from Certara. Plasma concentrations from the LC/MS/MS analyses, dose, route of administration, and desired units were utilized for PK parameter calculations. […] FIG. 4C provides the concentration over time of compound 17 following in vivo oral administration in the 6 hour and 24 hour assays.
Cmax, Tmax and AUClast were all calculated using a WinNonLin Phoenix 64 v 8.2.0.4383. Using non-compartmental analysis, Tmax, Cmax and AUClast were determined as follows: • Tmax—Time of maximum observed concentration. • Cmax—Maximum observed concentration, occurring at time Tmax, as defined above. • AUClast—Area under the curve from the time of dosing to the time of the last measurable (positive) concentration (Tlast).

ITK [2] = target: T1, ITK (Homo sapiens, UniProt Q08881); assay: ITK degradation HiBiT assay; format: cell-based; design: expressed in transfected cells; host or cells: Molt4 (ATCC CRL-1552), monoclonal clone 1C10, engineered to carry the HiBiT tag; conditions: MOLT-4, C-terminal HiBiT-tagged Molt4 cells, 4 hrs
T1 sequence (Q08881 1-620): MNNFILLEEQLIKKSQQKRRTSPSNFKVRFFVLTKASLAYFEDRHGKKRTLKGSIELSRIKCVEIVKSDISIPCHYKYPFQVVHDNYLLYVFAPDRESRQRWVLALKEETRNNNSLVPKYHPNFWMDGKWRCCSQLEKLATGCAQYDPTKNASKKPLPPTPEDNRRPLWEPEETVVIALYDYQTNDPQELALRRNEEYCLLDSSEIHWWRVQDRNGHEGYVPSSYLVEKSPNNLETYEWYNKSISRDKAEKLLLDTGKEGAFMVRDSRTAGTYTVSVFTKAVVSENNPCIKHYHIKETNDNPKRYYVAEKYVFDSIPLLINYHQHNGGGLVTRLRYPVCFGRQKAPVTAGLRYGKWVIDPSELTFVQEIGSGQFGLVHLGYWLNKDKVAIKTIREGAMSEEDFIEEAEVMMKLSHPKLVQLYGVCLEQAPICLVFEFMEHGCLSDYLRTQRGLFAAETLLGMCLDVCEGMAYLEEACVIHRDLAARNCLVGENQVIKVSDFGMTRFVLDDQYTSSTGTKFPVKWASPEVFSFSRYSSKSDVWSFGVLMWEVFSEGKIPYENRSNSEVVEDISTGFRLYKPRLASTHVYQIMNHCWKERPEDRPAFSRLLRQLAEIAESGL
Outline: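 C-terminal HiBiT-tagged Molt4 cells (clone 1C10) treated 4 h at 32° C with an 11-point, 5-fold compound dilution series (0.5% DMSO). HiBiT lytic detection with LgBiT then luminescence read; % ITK remaining versus concentration fit by four-parameter variable-slope model to give DC50 and Dmax.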

ITK [3] = target: T2, ITK (Mus musculus, UniProt Q03526); assay: Mouse PD assay for ITK degradation (Western blot, splenocytes after oral administration); format: in vivo; conditions: percent ITK remaining in mouse splenocytes relative to vehicle, 90 mpk PO, 6 h
T2 construct: mice were sacrificed and splenocytes were isolated and used to prepare protein lysates; from tissue; host or cells: mouse splenocytes (spleen) after oral dosing
T2 sequence (Q03526 1-625): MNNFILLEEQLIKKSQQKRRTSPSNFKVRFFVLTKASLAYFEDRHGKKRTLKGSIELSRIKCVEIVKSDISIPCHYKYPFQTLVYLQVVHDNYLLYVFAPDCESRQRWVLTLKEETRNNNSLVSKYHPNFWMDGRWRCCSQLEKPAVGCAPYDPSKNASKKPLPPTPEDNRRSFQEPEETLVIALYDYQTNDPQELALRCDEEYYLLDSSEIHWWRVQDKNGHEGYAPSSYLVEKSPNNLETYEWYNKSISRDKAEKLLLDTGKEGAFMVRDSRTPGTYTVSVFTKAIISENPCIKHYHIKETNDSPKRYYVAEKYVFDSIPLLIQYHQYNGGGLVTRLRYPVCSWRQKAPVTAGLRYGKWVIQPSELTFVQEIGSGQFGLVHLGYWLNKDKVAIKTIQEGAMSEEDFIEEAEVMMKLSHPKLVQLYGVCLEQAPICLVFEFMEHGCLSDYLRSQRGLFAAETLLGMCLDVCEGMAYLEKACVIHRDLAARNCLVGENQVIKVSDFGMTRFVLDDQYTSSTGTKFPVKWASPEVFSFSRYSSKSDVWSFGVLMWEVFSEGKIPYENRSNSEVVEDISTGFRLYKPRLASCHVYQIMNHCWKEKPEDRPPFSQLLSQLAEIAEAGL
Procedure: as §1
After 6 hours, splenocytes cells were harvested. ITK was evaluated by Western blotting.
Compounds 43, 4, 5, 10, 11, 12, 44, 14, 3, and 13 were administered to mice orally. After 6 hours, splenocytes cells were harvested. ITK was evaluated by Western blotting. Media was removed and cell pellets were lysed in 100 uL lysis buffer (RIPA buffer (Fisher, PI89901), cOmplete Mini EDTA-free protease inhibitor (Sigma 11836170001), Protease Inhibitor Cocktail (Sigma, P2714), Phosphatase Inhibitor Cocktail 2 and 3 (Sigma, P5726 and P0044), Benzonase (Sigma, E1014)). Cells were lysed overnight at −20° C. Following thaw, cells were centrifuged for 10 min at 13000 rpm, then transferred to new tube. Protein levels were determined by BCA Assay performed according to manufacturer's protocol (EMID Millipore, cat. no. 71285-3). Samples were combined with (4×) LDS Sample Buffer and (10×) Reducing Agent and H2O to equally load 20 ug protein per lane of a 26-well NuPAGE 4-12% Bis-Tris protein gel (1.0 mm, Thermo cat. no. NP0326). Samples were separated by running gels at constant 150 V in NuPAGE MES SDS Running Buffer. Following electrophoresis, proteins were transferred to nitrocellulose membranes using an iBlot Gel Transfer Device and iBlot Gel Transfer Stacks (Thermo cat. no. IB21001 and IB301001) and transfer method P3 (20V for 7 min). Membranes were blocked for 1 hr in 5% milk solution (TBS (0.2% Tween-20)). Following blocking, membranes were incubated with primary antibody (1:1000 CST ITK (2F12) #2380) overnight at 4° C. with gentle shaking. Blots were washed 2× in TBS (0.2% Tween-20), 30 min per wash. Following washes, blots were incubated in secondary HRP-conjugated antibody (Promega anti-Mouse IgG (H+L) HRP cat. no. W4021), 1:5000 in 5% milk solution (TBS (0.2% Tween-20)), for 1 hr at room temperature with gentle shaking. Blots were washed 2× in TBS (0.2% Tween-20), 30 min per wash. Blots were incubated with 1:1 mix of ECL reagents 1 & 2 (Amersham ECL Western Blotting Detection Reagent, cat. no. RPN2106) for 2 min at room temperature. Bands were visualized using a Protein Simple imager. Blots were then re-probed with a combination of anti-actin antibody (Sigma Monoclonal Mouse Anti-3-Actin (clone AC-15), cat. no. A5441) and secondary H1RP-conjugated antibody (Promega anti-Mouse IgG (H+L) HRP, cat. no. W4021) and similar steps were taken for incubation, wash, detection and visualization steps as above. The data was analyzed using Alpha View software. The densitometric reading for each sample band was normalized to that of the corresponding actin band per lane. Approximate % ITK remaining per sample was calculated as follows: […]
Once % ITK remaining has been calculated for each sample, groups are averaged together to show an means % ITK normalized to actin and relative to control.
Compounds 16, 17, and 18 were administered to mice orally. After 6 hours or 24 hours, splenocytes cells were harvested. ITK was evaluated by Western blotting. Plasma concentrations were determined by LC/MS/MS. Plasma samples were protein precipitated by addition of 100 μl of acetonitrile containing 50 ng/ml of internal standard. The resulting mixture was vortexed and centrifuged at 4000 RPM for 5 minutes. […]

SMILES | AUC(0-t) [1] [µM·h] | Cmax [1] [nM] | Tmax [1] [h] | Dmax (ITK [2]) [%] | ITK (%) 90 mpk PO, 6 h (ITK [3]) [%]
CC1(C)CCc2c(-c3cc4ccc(C(=O)N5CCC(CN6CCC7(C6)CN(c6ccc(C8CCC(=O)NC8=O)cn6)C7)CC5)cc4[nH]3)n[nH]c2C1 (centres unmarked) [Compound 61, 3-(6-(6-((1-(2-(6,6-dimethyl-4,5,6,7-tetrahydro-1H-indazol-3-yl)-1H-indole-6-carbonyl)piperidin-4-yl)methyl)-2,6-diazaspiro[3.4]octan-2-yl)pyridin-3-yl)piperidine-2,6-dione] | 0.08 | 23 | 1.5 | 83 | 
CN(C(=O)CC1CCN(c2ccc(C3CCC(=O)NC3=O)cn2)CC1)c1ccc2cc(-c3n[nH]c4c3C[C@@H]3C(F)(F)[C@]3(C)C4)[nH]c2c1 (some centres unmarked) [Compound 20] |  |  |  |  | 66
